The values below come from publication PMC10663924 (Saudi Pharmaceutical Journal : SPJ, 2023).

One series deals with human VEGFR-2 (Homo sapiens, UniProt P35968). The series is described as follows: biochemical.
A further series deals with HepG2 cell lines. Nature of the series: cells. The class given is cell-based. Conditions: Homo sapiens, HepG2, read-out: IC50 proliferation of HepG2 (abstract).
Another series relates to MCF7 cell lines. The series is described as follows: cells. Conditions: Homo sapiens, MCF7, read-out: IC50 proliferation of MCF7 (abstract). Type of series: cell-based.
In a further series the test system is Vero cell line. The series is described as follows: MTT safety assay, Vero normal cells. Type of series: cell-based. As to conditions: Chlorocebus sabaeus, read-out: IC50 against normal cell line (Vero).
The subject of series [1] is MCF7 cells. The series is described as follows: Annexin V / PI flow cytometry apoptosis analysis. Type of series: cell-based. As to conditions: 30.95 µM.
For the next series, the system named is TNF-α. The series is described as follows: qRT-PCR of TNF-α in MCF7 cells. Type of series: cell-based. Conditions: treated MCF7 cells vs control.
In the next series the test system is IL-2. The series is described as follows: qRT-PCR of IL-2 in MCF7 cells. As to conditions: treated MCF7 cells vs control. The class given is cell-based.
Series [2] has as its system MCF7 cells. Nature of the series: Scratch. The class given is cell-based.
The nature of series [3]: Determination of LD50 in mice. Conditions: male, BALB/c, mouse, in vivo, po. Type of series: in vivo.
Another series has as its system BALB/c male mice. Nature of the series: Determination of LD50 in mice. Type of series: in vivo. As to conditions: mice, 1 and 3 gm/kg single dose orally, 24 h.
A further series in a line: Liver function test. As to conditions: mice; for ALT level: control 25.2 ± 1.2; for AST level: control 29.1 ± 1.1.
The next series deals with Human EGFR (Homo sapiens, UniProt P00533). Nature of the series: In vitro multikinase assay.
Chain of Human EGFR (P00533 25-1210): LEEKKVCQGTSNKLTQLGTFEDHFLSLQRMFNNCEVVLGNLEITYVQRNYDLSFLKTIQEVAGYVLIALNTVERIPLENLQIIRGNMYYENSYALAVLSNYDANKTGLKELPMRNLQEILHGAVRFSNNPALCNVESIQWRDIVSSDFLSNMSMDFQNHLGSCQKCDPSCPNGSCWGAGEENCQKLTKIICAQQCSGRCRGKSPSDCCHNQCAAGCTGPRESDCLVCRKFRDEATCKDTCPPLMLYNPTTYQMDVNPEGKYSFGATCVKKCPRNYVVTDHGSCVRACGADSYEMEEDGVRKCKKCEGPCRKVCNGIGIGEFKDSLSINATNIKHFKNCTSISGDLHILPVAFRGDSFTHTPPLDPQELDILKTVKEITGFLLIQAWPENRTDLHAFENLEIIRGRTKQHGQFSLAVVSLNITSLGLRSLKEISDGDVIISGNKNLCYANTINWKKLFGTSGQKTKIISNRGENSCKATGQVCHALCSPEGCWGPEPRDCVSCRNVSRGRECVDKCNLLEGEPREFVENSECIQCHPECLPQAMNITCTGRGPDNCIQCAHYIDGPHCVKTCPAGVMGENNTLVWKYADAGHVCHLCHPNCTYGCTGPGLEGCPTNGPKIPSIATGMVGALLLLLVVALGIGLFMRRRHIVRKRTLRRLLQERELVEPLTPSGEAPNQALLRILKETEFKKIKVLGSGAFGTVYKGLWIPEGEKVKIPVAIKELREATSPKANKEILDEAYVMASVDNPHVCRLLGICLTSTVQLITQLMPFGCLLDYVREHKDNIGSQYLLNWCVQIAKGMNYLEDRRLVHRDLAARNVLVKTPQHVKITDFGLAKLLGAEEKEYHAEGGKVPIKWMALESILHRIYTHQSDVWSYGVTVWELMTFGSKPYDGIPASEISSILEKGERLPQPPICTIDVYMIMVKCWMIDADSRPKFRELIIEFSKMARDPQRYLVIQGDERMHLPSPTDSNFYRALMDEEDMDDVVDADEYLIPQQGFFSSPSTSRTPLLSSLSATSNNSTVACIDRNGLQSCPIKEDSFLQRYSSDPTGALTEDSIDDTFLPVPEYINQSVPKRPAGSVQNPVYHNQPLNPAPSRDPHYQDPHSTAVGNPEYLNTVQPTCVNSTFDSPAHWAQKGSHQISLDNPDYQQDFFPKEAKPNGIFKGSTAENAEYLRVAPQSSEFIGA
The next series concerns the target Human PDGFRβ (Homo sapiens, UniProt P09619). The series is described as follows: In vitro multikinase assay.
Setting [4] is: 100 mg/kg oral single dose (group II).
Where [5] appears, read: 200 mg/kg oral single dose (group III).

SMILES strings stand for the structures.

Chain of human VEGFR-2 (P35968 20-1356): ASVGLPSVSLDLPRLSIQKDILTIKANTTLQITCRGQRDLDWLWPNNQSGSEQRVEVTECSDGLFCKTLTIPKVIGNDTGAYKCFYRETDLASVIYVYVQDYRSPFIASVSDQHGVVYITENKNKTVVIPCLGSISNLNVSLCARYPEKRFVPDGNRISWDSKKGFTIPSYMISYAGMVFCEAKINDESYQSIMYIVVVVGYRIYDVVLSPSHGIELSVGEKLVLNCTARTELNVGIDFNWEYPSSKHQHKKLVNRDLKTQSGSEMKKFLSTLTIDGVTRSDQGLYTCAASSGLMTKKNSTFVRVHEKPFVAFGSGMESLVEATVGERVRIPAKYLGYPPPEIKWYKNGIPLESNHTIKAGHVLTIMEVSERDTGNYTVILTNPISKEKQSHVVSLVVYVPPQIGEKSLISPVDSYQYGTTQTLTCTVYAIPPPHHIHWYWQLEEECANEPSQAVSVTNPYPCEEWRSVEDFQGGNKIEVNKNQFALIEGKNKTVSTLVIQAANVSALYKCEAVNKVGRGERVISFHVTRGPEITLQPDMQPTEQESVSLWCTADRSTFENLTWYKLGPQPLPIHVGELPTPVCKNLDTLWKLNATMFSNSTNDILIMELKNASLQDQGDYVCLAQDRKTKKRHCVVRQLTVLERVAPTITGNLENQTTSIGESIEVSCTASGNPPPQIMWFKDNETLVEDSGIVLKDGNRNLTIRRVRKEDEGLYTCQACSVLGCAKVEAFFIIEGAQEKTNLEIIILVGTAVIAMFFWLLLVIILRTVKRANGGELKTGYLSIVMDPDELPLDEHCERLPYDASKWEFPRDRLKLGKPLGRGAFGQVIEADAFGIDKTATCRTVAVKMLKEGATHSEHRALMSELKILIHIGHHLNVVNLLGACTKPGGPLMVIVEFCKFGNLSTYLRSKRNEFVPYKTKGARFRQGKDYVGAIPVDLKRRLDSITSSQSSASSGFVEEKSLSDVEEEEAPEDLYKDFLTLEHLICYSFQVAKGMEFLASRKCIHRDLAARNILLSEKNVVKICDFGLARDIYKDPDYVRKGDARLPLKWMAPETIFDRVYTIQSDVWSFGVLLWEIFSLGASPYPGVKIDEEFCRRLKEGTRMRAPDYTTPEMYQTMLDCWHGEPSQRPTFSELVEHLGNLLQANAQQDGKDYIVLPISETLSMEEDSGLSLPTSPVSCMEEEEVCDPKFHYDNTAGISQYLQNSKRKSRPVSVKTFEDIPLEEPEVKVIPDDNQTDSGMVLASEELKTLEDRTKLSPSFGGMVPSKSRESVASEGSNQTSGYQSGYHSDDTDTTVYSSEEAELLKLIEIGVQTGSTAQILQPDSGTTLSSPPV
Chain of Human PDGFRβ (P09619 33-1106): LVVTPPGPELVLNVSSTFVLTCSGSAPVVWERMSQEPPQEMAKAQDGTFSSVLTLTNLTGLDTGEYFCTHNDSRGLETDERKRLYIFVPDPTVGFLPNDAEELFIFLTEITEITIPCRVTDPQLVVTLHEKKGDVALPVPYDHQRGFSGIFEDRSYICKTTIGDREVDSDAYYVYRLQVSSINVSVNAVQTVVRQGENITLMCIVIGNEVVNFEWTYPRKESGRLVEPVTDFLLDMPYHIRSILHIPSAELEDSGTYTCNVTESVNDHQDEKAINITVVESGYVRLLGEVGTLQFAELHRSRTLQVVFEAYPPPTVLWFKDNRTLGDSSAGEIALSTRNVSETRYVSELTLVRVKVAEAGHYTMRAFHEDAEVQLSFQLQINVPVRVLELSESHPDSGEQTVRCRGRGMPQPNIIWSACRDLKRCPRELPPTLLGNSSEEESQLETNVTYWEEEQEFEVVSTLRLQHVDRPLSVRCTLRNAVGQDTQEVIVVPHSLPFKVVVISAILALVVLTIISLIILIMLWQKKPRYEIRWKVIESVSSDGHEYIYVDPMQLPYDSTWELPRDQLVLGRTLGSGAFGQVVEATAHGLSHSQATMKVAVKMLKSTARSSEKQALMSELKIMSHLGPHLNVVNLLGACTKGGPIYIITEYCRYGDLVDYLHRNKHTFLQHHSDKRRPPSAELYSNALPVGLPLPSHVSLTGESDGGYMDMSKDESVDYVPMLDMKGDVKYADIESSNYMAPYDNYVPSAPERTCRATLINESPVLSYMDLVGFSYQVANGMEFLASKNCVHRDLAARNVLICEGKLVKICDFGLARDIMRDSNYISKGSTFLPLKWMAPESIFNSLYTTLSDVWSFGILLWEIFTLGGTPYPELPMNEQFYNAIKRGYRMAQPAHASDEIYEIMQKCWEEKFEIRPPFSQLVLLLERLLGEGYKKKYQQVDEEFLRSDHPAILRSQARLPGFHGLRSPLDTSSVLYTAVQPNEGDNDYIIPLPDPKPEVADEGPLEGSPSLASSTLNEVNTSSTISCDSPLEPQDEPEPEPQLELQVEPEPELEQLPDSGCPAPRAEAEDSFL

On human VEGFR-2, `CC(=NNC(=O)c1cccc(C)c1)c1ccc(NC(=O)Cn2c(=O)c3c(ncn3C)n(C)c2=O)cc1` [T-1-MBHEPA, 2-(3,7-dimethyl-2,6-dioxo-2,3,6,7-tetrahydro-1H-purin-1-yl)-N-(4-(1-(2-(3-methylbenzoyl)hydrazono)ethyl)phenyl)acetamide] displayed an IC50 of 121 ± 51 nM. The IC50 with HepG2 cell lines stood at 4610 nM. The IC50 with MCF7 cell lines amounted to 4850 nM. In addition, the IC50 in the series on Vero cell line worked out at 80000 nM. In the series on MCF7 cells [1], the “Apoptosis Early %” value turned out to be 7.22%, the “Apoptosis Late %” value came to 2.72%, the “Apoptosis Total %” value came out at 21.35% and the Necrosis % turned out to be 11.41%. In the series on TNF-α, the “Reduction of TNF-α production” value is listed as 33%. For the same molecule, in the series with IL-2, the “Reduction of IL-2 production” value came to 58%. Moreover, in the series with MCF7 cells [2] (MCF7), the “Scratch area at 48 h” value was 892.6667 and the “Scratch width at 48 h” value is 891.751. In the series with MCF7 cells [2] (MCF7, 48 h), the Area difference % worked out at 71.333%, the RM um is recorded as 1.485 um and the “Wound closure % um^2” value is reported as 7.399 % um^2. In addition, the “Decrease of scratch width (healing and migration) within 48 h” value in the series on MCF7 cells [2] (MCF7, 48 h, untreated 65.9 %) came to 7.4%. In addition, the LD50 at 24 h in series [3] is 5000 mg/kg. Further, the “Tolerability of the other doses” value in the series with BALB/c male mice is given as “well tolerated”. For the same molecule, in “Liver function test” (setting [4]), the ALT level is reported as 25.3 ± 2.1 and the AST level came to 29.2 ± 1.1. Moreover, in the series “Liver function test” (setting [5]), the ALT level worked out at 28.9 ± 2.1 and the AST level stood at 31.7 ± 1.8. On Human EGFR, the IC50 came to 355 ± 14 nM. Moreover, the IC50 at Human PDGFRβ worked out at 179 ± 9 nM.
